Assay results reported in the supplement of paper PMC11451515.

System: P12-Ichikawa
Experiment: cell viability relative to DMSO control; higher = less cytotoxic
Details: 48 h
In short: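 Viability, reported as a per-plate percentage of DMSO wells with cell-free wells as background, came from CellTiter-Glo One luminescence. Reading took place after 48 h at 37°C. Before that, NOMO1 or SEM (500 cells/well) or P12-Ichikawa (1000 cells/well) leukemia cells, adapted for at least four passages in each medium, were seeded in 1536-well plates (5 μl) and pin-dosed with library compounds in DMSO, 47 μM to 0.79 nM over 11 threefold points.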

[1] = HPLM + 10% dialyzed FBS, 0.000781 µM
[2] = HPLM + 10% dialyzed FBS, 0.00234 µM
[3] = HPLM + 10% dialyzed FBS, 0.00702 µM
[4] = HPLM + 10% dialyzed FBS, 0.0211 µM
[5] = HPLM + 10% dialyzed FBS, 0.0632 µM
[6] = HPLM + 10% dialyzed FBS, 0.19 µM
[7] = HPLM + 10% dialyzed FBS, 0.569 µM
[8] = HPLM + 10% dialyzed FBS, 1.71 µM
[9] = HPLM + 10% dialyzed FBS, 5.12 µM
[10] = HPLM + 10% dialyzed FBS, 15.4 µM
[11] = HPLM + 10% dialyzed FBS, 46.1 µM
[12] = RPMI 5 mM glucose + 10% FBS, 0.000781 µM
[13] = RPMI 5 mM glucose + 10% FBS, 0.00234 µM
[14] = RPMI 5 mM glucose + 10% FBS, 0.00702 µM
[15] = RPMI 5 mM glucose + 10% FBS, 0.0211 µM
[16] = RPMI 5 mM glucose + 10% FBS, 0.0632 µM
[17] = RPMI 5 mM glucose + 10% FBS, 0.19 µM
[18] = RPMI 5 mM glucose + 10% FBS, 0.569 µM
[19] = RPMI 5 mM glucose + 10% FBS, 1.71 µM
[20] = RPMI 5 mM glucose + 10% FBS, 5.12 µM
[21] = RPMI 5 mM glucose + 10% FBS, 15.4 µM
[22] = RPMI 5 mM glucose + 10% FBS, 46.1 µM
[23] = RPMI 5 mM glucose + 10% dialyzed FBS, 0.000781 µM
[24] = RPMI 5 mM glucose + 10% dialyzed FBS, 0.00234 µM
[25] = RPMI 5 mM glucose + 10% dialyzed FBS, 0.00702 µM
[26] = RPMI 5 mM glucose + 10% dialyzed FBS, 0.0211 µM
[27] = RPMI 5 mM glucose + 10% dialyzed FBS, 0.0632 µM
[28] = RPMI 5 mM glucose + 10% dialyzed FBS, 0.19 µM
[29] = RPMI 5 mM glucose + 10% dialyzed FBS, 0.569 µM
[30] = RPMI 5 mM glucose + 10% dialyzed FBS, 1.71 µM
[31] = RPMI 5 mM glucose + 10% dialyzed FBS, 5.12 µM
[32] = RPMI 5 mM glucose + 10% dialyzed FBS, 15.4 µM
[33] = RPMI 5 mM glucose + 10% dialyzed FBS, 46.1 µM

Structure (SMILES)	cell viability [1]	cell viability [2]	cell viability [3]	cell viability [4]	cell viability [5]	cell viability [6]	cell viability [7]	cell viability [8]	cell viability [9]	cell viability [10]	cell viability [11]	cell viability [12]	cell viability [13]	cell viability [14]	cell viability [15]	cell viability [16]	cell viability [17]	cell viability [18]	cell viability [19]	cell viability [20]	cell viability [21]	cell viability [22]	cell viability [23]	cell viability [24]	cell viability [25]	cell viability [26]	cell viability [27]	cell viability [28]	cell viability [29]	cell viability [30]	cell viability [31]	cell viability [32]	cell viability [33]
C#C[C@]1(O)CC[C@H]2[C@@H]3CCc4cc(OC)ccc4[C@H]3CC[C@@]21C	118%	104%	111%	106%	110%	98.5%	111%	102%	101%	109%	98.5%	110%	101%	112%	106%	113%	106%	106%	108%	90.7%	111%	97.6%	103%	101%	100%	107%	114%	111%	107%	107%	101%	102%	97.6%
CNCC(O)C(O)C(O)C(O)CO.O=C(O)c1ccc(-c2cc3cccnc3c(-c3ccc4nonc4c3)n2)cc1	105%	112%	115%	106%	119%	116%	120%	119%	112%	117%	99.4%	113%	107%	122%	107%	123%	127%	122%	116%	121%	109%	102%	104%	114%	111%	104%	115%	114%	119%	120%	113%	104%	89.4%
CN(C)CCCNC(=O)c1ccc(-c2cc(O)c3ncccc3c2)cc1	102%	102%	106%	107%	106%	111%	93.9%	104%	101%	95.2%	82.6%	95.7%	97.4%	101%	104%	111%	89.6%	93.3%	95.5%	92%	99.8%	63.6%	92.3%	97.9%	96.8%	97.5%	103%	95.1%	98.5%	90.6%	83.4%	100%	71.1%
COc1ccc2c(c1OC)CN1CCc3cc4c(cc3C1C2)OCO4 (stereo unspecified)	94.5%	96.2%	101%	104%	101%	99.8%	97.2%	77%	15.9%	6.51%	6.63%	86.1%	87%	92.7%	93.9%	94%	89%	86.7%	53.6%	17.7%	5.68%	4.82%	84.8%	87.7%	92.6%	94.4%	92.5%	83.2%	83.5%	52.9%	13.4%	7.72%	6.88%
COC(=O)[C@@H](N)CCCNC(=N)N[N+](=O)[O-]	94.6%	102%	104%	98.4%	111%	98.1%	110%	107%	107%	103%	115%	85.4%	96.7%	99%	94%	105%	98.5%	114%	103%	105%	99.3%	105%	85.9%	93%	90.7%	97.5%	99.2%	91.5%	99.7%	98.6%	95.9%	92%	94%
O=C(CCc1ccc(O)cc1)c1c(O)cc(O)cc1O[C@@H]1O[C@H](CO)[C@@H](O)[C@H](O)[C@H]1O	96.3%	96.6%	94.1%	92.8%	88%	96.3%	86.2%	84%	85.1%	81.9%	85.5%	90.2%	85.4%	86.5%	86.5%	82.4%	83.6%	88.1%	82.6%	82.5%	81.6%	86.1%	84.1%	84.3%	95%	93.9%	82.8%	85.1%	81.8%	89.3%	83.2%	80.2%	82.8%
CC(C)c1ccccc1Cc1cc(C(=O)Nc2ccc([S+](=O)([O-])c3ccccc3C(C)(C)C)cc2)c(O)c(O)c1O	112%	112%	111%	113%	111%	110%	106%	102%	101%	97.2%	91.5%	112%	116%	116%	114%	118%	115%	107%	107%	108%	103%	87.7%	111%	112%	117%	108%	107%	114%	108%	107%	97.1%	93.3%	92.9%
